Reference: ChEMBL document CHEMBL1122361, “Synthesis and antineoplastic activity of 3'-azido and 3'-amino analogues of pyrimidine deoxyribonucleoside” (1983)
The source made the active and inactive calls. The rule behind the calls is not given here.

Tests used:
L1210 [1] = assay: Ability to effect the replication of L1210 cells in vitro; type: functional; conditions: Mus musculus, read-out: ID50 (the source's name)
[2] = Ability to effect the replication of S-180 cells in vitro; type: functional; conditions: Mus musculus, read-out: ID50 (the source's name)
Mus musculus = assay: Ratio of treated to that of control was determined in mice tested in vivo(on day 31); type: functional
L1210 [3] = assay: Ability to effect the replication of L1210 cells in vitro; IN-Inactive; type: functional, cell-based; conditions: Mus musculus

IC50 (L1210 [1]) [µM]	IC50 [2] [µM]	Structure (SMILES)	T/C (Mus musculus) [%]	ID50 (L1210 [3])
18	50	N[C@H]1C[C@H](n2ccc(=O)[nH]c2=O)O[C@@H]1CO		
0.7	4	Nc1ccn([C@H]2C[C@H](N)[C@@H](CO)O2)c(=O)n1	283	
		[N-]=[N+]=N[C@H]1C[C@H](n2ccc(=O)[nH]c2=O)O[C@@H]1CO		inactive
		[N-]=[N+]=N[C@H]1C[C@H](n2ccc(N)nc2=O)O[C@@H]1CO		inactive
